The results in this text go back to patent US20170127693A1, “NUTRITIONAL COMPOSITIONS CONTAINING BUTYRATE AND USES THEREOF” (Mead Johnson Nutrition Company, priority 2015, published 2017).

The format of the data set is physicochemical. From the text:
The dietary butyrate can comprise a phenylalanine amide derivative of butyric acid. In fact, use of a phenylalanine amide derivative of butyric acid provides for improved organoleptic and physicochemical characteristics as it is an odorless and colorless solid crystalline powder. Furthermore, the purification of phenylalanine amide derivatives of butyric acid may be particularly economical for purification in terms of the cost to purify versus the yield of compound ratio. Accordingly, in certain embodiments, the dietary butyrate may comprise an acid-stable butyrate amide with the amino acid phenylalanine, such as phenylalanine-butyramide (“FBA”). […] Moreover, the solubility of FBA in water is satisfactory as it produces clear solutions up to the concentration 0.1 M and suspensions at higher concentrations. Accordingly, FBA is a suitable form of dietary butyrate that may be incorporated into powdered nutritional compositions that are to be reconstituted with water or some other type of liquid.

For phenylalanine-butyramide [FBA], the “solubility in water (concentration up to which clear solutions are produced)” value is at most 100 mM; the “stability to acids and alkalis” value is “stable to acids and alkalis”.
